A melting point compilation (Tetko et al.; mined from patent text by program, amines drawn as free bases though some values may be those of a salt)

Row | Structure (SMILES) | melting point [°C]
1 | CCCC(=O)Nc1cc(C(=O)NC2CCN(C(C)CC(C(=O)N(C)C)(c3ccccc3)c3ccccc3)CC2OC)c(OC)cc1Cl (stereo not given) | 131
2 | COc1ccccc1C1CCC(=O)CC1(O)C(=O)O (stereo not given) | 204
3 | CCCCn1c(=O)c2nc(C(=O)OCC)cn2c2ccccc21 | 205 to 209
4 | CCOc1cccc(NC(=O)NC2N=C(c3ccccc3F)c3ccccc3N(CC(=O)N3CC4CCC(CC4)C3)C2=O)c1 (stereo not given) | 158 to 166
5 | CS(=O)(=O)c1cc(C(=O)N=C(N)N)ccc1N1CCC(N)CC1 | 239 to 241
6 | O=c1c(Br)cc(Cl)cn1Cc1ccccc1 | 108 to 110
7 | Cn1cc(-c2ccccc2)c(=O)c(-c2cccs2)c1 | 147 to 148
8 | COc1c(C=O)c(C)cc2c1C(C)(C)CCC2(C)C | 78
9 | CCOC(=O)CN[C@H]1CSc2ccccc2N(CC(=O)O)C1=O | 223 to 226
10 | CCC(C#N)c1ccc(Cl)c2nc3n(c12)CCCN3c1ccc(Cl)cc1Cl (stereo not given) | 220 to 221
11 | NC=C(C=O)c1cccc(C(F)(F)F)c1 | 63 to 70
12 | Cn1cc(-c2cccc(C(F)(F)F)c2)c(=O)c(-c2ccc(F)cc2Cl)c1 | 183 to 186
13 | CC(C)(C)c1csc(-c2cc3cc(CCC(=O)O)ccc3o2)n1 | 157 to 160
14 | CCOC(=O)Cn1cc(C(=O)OCC)c(=O)c2ccccc(=O)c21 | 152 to 154
15 | COc1ccc(C2CCN(C(=O)C(=O)O)CC2)cc1OC1CCCC1 | 112 to 113
16 | CC(C)CN1C(=O)c2cnc(-c3ccccc3)nc2N(C(=O)CN2CCCCC2)c2ccccc21 | 193 to 194
17 | CNC(=O)c1cc2ccc3c(c2c(-c2ccc4c(c2)OCO4)c1CO)OCO3 | 233 to 235
18 | O=C(c1cccc(Cl)c1)c1ccccc1Nc1ncccc1[N+](=O)[O-] | 124 to 125
19 | Cc1ccc(-n2cc(CCCO)c(C(C)C)n2)nc1 | 82 to 83
20 | COc1ccc2c(C)n[nH]c(=O)c2c1 | 203 to 205
21 | CN1C(=O)C(NC(=O)c2cc3cc(O)ccc3[nH]2)N=C(c2ccccc2)c2ccccc21 (stereo not given) | 120 to 130
22 | CC[C@@H]1O[C@](C#Cc2ccoc2)(C(F)(F)F)c2cc(Cl)ccc2NC1=O (relative stereo) | 169 to 170
23 | O=C1CN(c2ccccc2)C(=O)N1C(=O)c1ccccc1Cl | 184 to 185
24 | O=S(=O)(CC=C1CCC1)c1ccccc1 | 76 to 78
25 | Cc1cccc(C(=O)C2CCCc3cccnc32)c1 (stereo not given) | 211 to 213

Row | Structure (SMILES) | melting point [°C]
26 | COC(=O)C(SC)c1ccc(N2C(=O)c3ccccc3C2=O)cc1 (stereo not given) | 168 to 169
27 | O=C(O)CCCS(=O)(=O)c1ccccc1 | 94 to 95
28 | O=c1ccc(S(=O)(=O)n2nc(Cl)c3ccccc32)n[nH]1 | 238 to 239
29 | C[C@H](c1ccc(F)cc1)N1CCN(c2cc(Oc3cccc4ncc(N)nc34)ncn2)CC1 | 118
30 | CCCCCCCS(=O)(=O)Oc1c(I)cc(I)cc1I | 78 to 80
31 | COc1cc(-c2nn(Cc3ccccc3)c(=O)c3ccccc23)ccc1O | 197 to 200
32 | Cc1cc(-c2ccc(C(F)(F)F)cc2)cc(-c2cccc(-c3cccc(NS(=O)(=O)N4CCOCC4)c3)n2)n1 | 191
33 | COc1ccc(NC(=O)c2cc([N+](=O)[O-])ccc2NC(=O)CF)c(C)c1 | 237 to 239
34 | Cc1c2sc3ccccc3nc-2c2c(O)cccc2c1=O | 226 to 228
35 | CCCn1c(=O)n2c(=O)[nH]nc2c2c1ncn2C | 299 to 301
36 | CC(C)Oc1ccc2c(c1)Oc1ccccc1S2(=O)=O | 94 to 95
37 | O=C(O)CC[C@H]1O[C@@H](c2ccccc2)c2ccccc2N(Cc2ccccc2)C1=O (relative stereo) | 112 to 114
38 | CC(C)NC(=O)NCCn1c(CO)nc2c(N)nc3ccccc3c21 | > 240
39 | N#Cc1cc(S(=O)(=O)c2ccc(N)cc2)cc(Br)n1 | 186 to 188
40 | OCc1ccc(Br)c(CO)c1 | 106 to 108
41 | Cc1ccc(C(=NO)C(F)(F)F)cc1 | 54 to 68
42 | CC12CCC3C(CCC4CC(=O)CC(C)(O)C43C)C1C(O)CC2=O (stereo not given) | 227 to 229
43 | CCCCCCCCCCCCCCOc1ccc(C(=O)O)cc1C(C)(C)C | 121 to 123
44 | c1ccc(-c2ccc(OC3CN(C(c4ccccc4)c4ccccc4)C3)cc2)cc1 | 141 to 142
45 | COc1ccc(-n2nc(C)cc2-c2ccccc2)cc1 | 110
46 | COC(=O)[C@H]1[C@@H](NC(=O)COc2ccccc2)C(=O)N1Cc1ccc(OC)cc1OC (relative stereo) | 116
47 | CCOc1ccc2nc(N3CCN(c4nc(N)c5cc(OC)c(OC)cc5n4)CC3)nc-2cc1 | > 250
48 | O=C(O)C(=O)c1ccc(OCCCC(=O)c2ccc3ccccc3c2)cc1 | 133 to 135
49 | OC[C@@H]1O[C@H]1C#CC#CC#Cc1ccccc1 (relative stereo) | 68 to 70

Now from value to compound:

Row | melting point [°C] | Structure (SMILES)
50 | > 275 | O=[N+]([O-])c1ccc(CNc2cccc(S(=O)(=O)O)c2)cc1
51 | 86 to 88 | C=CCC(=O)NCC(CO)c1cccc2ccc(OC)cc12 (stereo not given)
52 | 250 to 252 | COc1ccc2c(c1)C=C(/C=C/C=C/C=C/C(=O)O)CO2
53 | 208 to 210 | Cc1cc(C)c(Nc2nc(C)ccc2S(=O)(=O)c2ccc(OCc3ccc(C#N)cc3)cc2)c(C)c1
54 | 70 | CCOC(=Cc1ccc(-c2cccc(N(C)C(=O)NCCc3ccccc3)c2)cc1)C(=O)O
55 | 213 to 214 | Clc1ccc(-c2nc(Cc3nnn[nH]3)c(-c3ccccc3)s2)cc1
56 | 276 | Cn1cc(C(=O)O)c(=O)c2cc3cc(F)c(N4CCNC(c5ccc(OCCO)cc5)C4)cc3nc21 (racemic)
57 | 114 to 116 | CC1=NC(=NOC(=O)NC(C)C)SC1(C)C
58 | 197 to 198 | Nc1nccc(-c2ccc(OCC(O)CN3CCN(c4cccc(Cl)c4)CC3)cc2)n1 (stereo not given)
59 | 125 to 129 | CC(C)NC(=O)OCC(=O)c1cccc(Br)c1
60 | 50 | CCSCCn1c(=N)sc2cc(C(F)(F)F)ccc21
61 | 102 | CCC(CC)/C(N)=C(\C#N)C(=O)Cl
62 | 110 to 111 | COC(=O)NOCC(=O)OCOC(=O)Oc1c(Br)cc(C#N)cc1Br
63 | 300 | COc1cccc2c(=O)c(C#N)c(N)oc12
64 | 141 to 143 | CNC(=O)c1cc(Cl)cc(C)c1N
65 | 165 to 168 | CC(C)(C)NNC(=S)c1ccccc1
66 | 199 to 202 | CNC(C)C1CCN(c2nc3c(cc2F)c(=O)c(C(=O)O)cn3C2CC2)C1 (stereo not given)
67 | 89 to 96 | COc1cc(C=C2CCCOC2CN)c([N+](=O)[O-])cc1OC (stereo not given)
68 | 192 to 193 | N#Cc1ccc(Oc2nccc(-c3c(-c4ccc(F)cc4)ncn3C3CCNCC3)n2)cc1
69 | 240 to 241 | O=C(O)C1=Cc2cc(C#Cc3ccccc3)ccc2OC1C(F)(F)F (stereo not given)
70 | 179 to 180 | CCc1cc2ccccn2c1C(=O)c1ccc(O)cc1
71 | 114 to 117 | COc1cc(CN2N=C(c3ccc(OC)c(OC)c3)[C@@H]3CCCC[C@@H]3C2=O)cc(OC)c1 (relative stereo)
72 | 180 | CC(=O)C(O)C1OC(S(=O)(=O)c2ncc(Cl)cn2)C(O)(C(C)=O)C(O)(C(C)=O)C1(O)C(C)=O (stereo not given)
73 | 232 to 235 | CC(C)NCC(O)COc1ccc2cn[nH]c(=O)c2c1 (stereo not given)
74 | 186 to 188 | CCCCc1nc2c(N)nc3ccc(OCC(=O)N(CC)CC)cc3c2n1C
75 | 191 to 192 | CCC(C)N1CCc2c(C(=O)O)nc3c(C#N)cnn3c21 (stereo not given)

Row | melting point [°C] | Structure (SMILES)
76 | 204 to 205 | CCCCc1nc2cccc(C(=O)OC)c2n1Cc1ccc(-c2ccccc2-c2n[nH]c(=O)o2)cc1
77 | 146 to 147 | CCOC(=O)C(CC(=O)c1ccccc1C)(NC(C)=O)C(=O)OCC
78 | 126 to 128 | Cc1ccc(S(=O)C(C(=O)OC(C)(C)C)C(O)c2ccc(Oc3ccccc3)cc2)cc1 (stereo not given)
79 | 114 to 116 | NN(c1ccccc1)c1cc(Cl)nc(Cl)n1
80 | 226 to 231 | COC(=O)Cn1c(C(=O)NC(N)=S)cc2cc(C)cc(C)c21
81 | 56 to 57 | CCCCOc1ccc(C=CCCCC(=O)O)cc1
82 | 201 to 204 | CNC(=O)c1cc(N)cc(N2CCOCC2)c1
83 | 187 to 192 | CCCCCCSc1nn2c(=O)cc(O)nc2s1
84 | 86 to 87.5 | CCCCOc1cc(I)c(OCCCC)cc1I
85 | 145 to 147 | CNC(=O)[C@H](O)[C@@H](Sc1ccccc1N)c1ccc(OC)cc1
86 | 167 to 168 | O=C(Cn1c(=O)c2cc(Cl)ccc2n(Cc2ccc(Cl)cc2Cl)c1=O)OCCO
87 | 151 to 155 | COc1ccc(COc2ccc(C=C3SC(=S)N(CC(=O)O)C3=O)cc2OCc2ccc(OC)cc2)cc1
88 | 368 to 371 | CC1(c2ccccc2)Nc2ccc3c(c2N1)C(=O)c1ccccc1C3=O (stereo not given)
89 | 68 to 70 | CCCCCCCCCCCCCCCCCC(=O)Oc1ccc([N+](=O)[O-])cc1OC(=O)CCCCCCCCCCCCCCCCC
90 | 178 to 187 | Cc1ccc(C(=O)c2ccc(C(=O)c3ccc(C)cc3)cc2)cc1
91 | 211 to 214 | O=P(c1ccccc1)(c1ccccc1)C(O)C(O)P(=O)(c1ccccc1)c1ccccc1 (stereo not given)
92 | 239 to 241 | CC(C)(C)C(=O)c1c[nH]c2ncc(-c3cccc(N)c3)nc12
93 | 164 to 166 | O=c1ccn(CCO)c(C(O)c2ccccc2F)c1OCc1ccccc1 (stereo not given)
94 | 151 to 152 | COc1ccc2c(c1)C(=O)N(CCCNCCCN1C(=O)c3cc(OC)ccc3C(C)(C)C1=O)C(=O)C2(C)C
95 | 73 to 75 | CCOC(=O)c1c(C)nc(Cl)c([N+](=O)[O-])c1N
96 | 82 to 84 | CNC(=O)NC(=O)C(CC1CCC(O)C1)c1ccc(Cl)c(Cl)c1 (stereo not given)
97 | 134 to 135 | COc1ccnc(CSc2nc3cc(OC(F)(F)F)ccc3[nH]2)c1
98 | 231 to 232 | N=C(N)NN=Cc1cccc(Cl)c1I
99 | 167 to 170 | O=C(O)CN1C(=O)SC(=Cc2ccc(OCc3ccccc3)c(OCc3ccccc3)c2)C1=O
100 | 77 to 78 | CN(C(=O)OC(C)(C)C)[C@@H](Cc1ccc(O)cc1)C(=O)N1CCN(c2ccc(Cl)c(Cl)c2)CC1
